# Key:
# [1] = Solubility of Solvent Black 28 in solvents; type: physicochemical
# Description: The chromium complex dye b) used in accordance with the invention is available under the name Solvent Black 28 (CAS no.: 12237-23-9, C.I. Solvent Black 28). A commercially available product is Orasol Black 045 from BASF SE. […] Solubility at 20° C. in ethanol is about 10 g/L and in methyl ethyl ketone about 400 g/L.
# [2] = Incorporation and coloring of the polymer by extrusion; conditions: attempted bulk coloring of polyethylene, above 160° C.
# Description: 98 parts polyethylene (Grade M80064 from Sabic) were premixed in a tumbling mixer with 2 parts Solvent Black 28 (Orasol Black 045 from BASF) for 10 minutes and extruded in a twin-shaft extruder having a diameter of 18 mm and an L/D ratio of 44 at barrel temperature 210° C. A significant odor developed from the extruder nozzle; the polymer strands had expanded in the foam mold. The production of plaques by means of injection molding machines was not possible.
# 99.9 parts polyamide PA6 (Ultramid B3S from BASF) were premixed in a tumbling mixer with 0.1 part Solvent Violet 13 (Orasol Blue 640 from BASF) for 10 minutes and then extruded and pelletized using a twin-shaft extruder having a diameter of 18 mm and an L/D ratio of 44 at barrel temperature 260° C. For this purpose, the natural-colored polyamide pellets were dried beforehand in a drying oven at 100° C. for 4 hours, such that the moisture content was below 0.1%. For this purpose, the moisture content was determined by means of a thermal balance.
substance,measurement,setting,value
Solvent Black 28,Solubility in ethanol,"[1]; 20° C., ethanol",about 10 g/L
same,Solubility in methyl ethyl ketone,"[1]; 20° C., methyl ethyl ketone",about 400 g/L
same,Water solubility,[1]; water,almost water-insoluble
same,thermal stability in bulk coloring of polyethylene,[2],entirely inadequate thermal stability
